Laboratory results: patent US20090196885A1, “Cancer Treatment” (National Health Research Institutes, priority 2005, published 2009)

System: Hep G2 hepatoma cells
Assay: In vitro cancer cell proliferation assay (sulforhodamine B), Hep G2
Format: cell-based
Conditions: Homo sapiens, HepG2, 144 h; lovastatin 2 μM alone; incubation for 6 days; read-out: inhibited growth of Hep G2 cells
Description: Hep G2 hepatoma cells were seeded in a 96-well culture plate (2000 cells/well) and cultured overnight in 100 μl of complete DMEM.

Question: Which inhibition at 2 µM does the source give for CC[C@H](C)C(=O)O[C@H]1C[C@@H](C)C=C2C=C[C@H](C)[C@H](CC[C@@H]3C[C@@H](O)CC(=O)O3)[C@H]21 [lovastatin] here?
Answer: The inhibition at 2 µM was 11.5%.
